What follows are compounds tested against human NAMPT (Homo sapiens (Human), UniProt P43490) (assay: NMN fluorescence biochemical assay (human recombinant NAMPT enzyme assay)).
Description: Compounds described herein were assayed for their ability to stimulate the synthesis of nicotinamide mononucleotide (NMN) by the enzyme NAMPT. The human recombinant enzyme assay measures the activation of the enzyme activity by compounds using recombinant enzyme and substrates in a buffered cell-free system. The assay conditions closely mimic cellular environments. Dose responses were measured using an assay to detect the formation of nicotinamide mono-nucleotide. All experiments were performed in the 384-well format. Generally, 0.5 μL of DMSO containing varying concentrations of the test compound was mixed with 10 μL of the enzyme reagent solution. Enzyme reactions were initiated with the addition of […] containing the substrates. The final assay conditions were as follows: 6 nM human NAMPT, 2.5 mM ATP, 20 μM PRPP and 150 μM nicotinamide in 50 mM HEPES, pH 7.2, 1 mM DTT, 1 mM CHAPS 50 mM NaCl, 100 mM MgCl2. Following an incubation of 60 min at ambient temperature, 10 μL of 20% acetophenone in DMSO was added, followed by 10 μL of 2 M KOH and 40 μL of formic acid. The plates were read for fluorescence (Excitation/Emission=355 nm/460 nm) using an EnVision plate reader after 40 mins of incubation at ambient temperature.

Sequence of human NAMPT (P43490 whole entry): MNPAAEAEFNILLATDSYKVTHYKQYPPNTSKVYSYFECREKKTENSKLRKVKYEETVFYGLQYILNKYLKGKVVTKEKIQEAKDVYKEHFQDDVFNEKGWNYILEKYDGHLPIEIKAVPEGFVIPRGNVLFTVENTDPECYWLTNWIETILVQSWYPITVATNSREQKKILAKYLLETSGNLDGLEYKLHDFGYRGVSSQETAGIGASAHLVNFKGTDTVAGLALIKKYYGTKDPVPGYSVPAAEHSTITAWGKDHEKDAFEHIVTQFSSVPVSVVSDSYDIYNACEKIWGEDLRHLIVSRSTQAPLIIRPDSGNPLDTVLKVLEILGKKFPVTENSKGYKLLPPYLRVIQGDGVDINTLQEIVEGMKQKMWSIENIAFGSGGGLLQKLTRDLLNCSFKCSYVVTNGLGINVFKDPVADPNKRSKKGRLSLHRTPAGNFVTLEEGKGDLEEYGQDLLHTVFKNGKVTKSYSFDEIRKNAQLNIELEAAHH

Row | Compound | AC1.4 Human | EC50
1 | COc1ccc(COC(=O)Nc2ccc(CNC(=O)c3ccc(C)nc3)cc2)cc1 [Compound 53, (4-methoxyphenyl)methyl N-(4-{[(6-methylpyridin-3-yl)formamido]methyl}phenyl)carbamate] | 0.51 µM | 5.89 µM
2 | CN1CC(=O)NC[C@@H]1c1ccc(NC(=O)OCc2ccc(Cl)cc2)cc1 [Compound 54, 4-chlorobenzyl (S)-(4-(1-methyl-5-oxopiperazin-2-yl)phenyl)carbamate] | 0.51 µM | 8.45 µM
3 | CN(C)C(=O)N1CCC(Cc2ccc(NC(=O)OCc3ccc(Cl)cc3)cc2)CC1 [Compound 58, 4-chlorobenzyl (4-((1-(dimethylcarbamoyl)piperidin-4-yl)methyl)phenyl)carbamate] | 0.55 µM | 1.73 µM
4 | COc1ccc(COC(=O)Nc2ccc(NS(=O)(=O)Cc3ccccc3)cc2)cc1 [Compound 61, 4-methoxybenzyl (4-((phenylmethyl)sulfonamido)phenyl)carbamate] | 0.57 µM | 2.62 µM
5 | Cc1ccc(Cc2ccc(NC(=O)OCc3cn[nH]c3)cc2)cn1 [Compound 65, (1H-pyrazol-4-yl)methyl (4-((6-methylpyridin-3-yl)methyl)phenyl)carbamate] | 0.58 µM | 37.1 µM
6 | COc1ccc(COC(=O)Nc2ccc(CC3CCN(C4COC4)CC3)cc2)cc1 [Compound 67, 4-methoxybenzyl (4-((1-(oxetan-3-yl)piperidin-4-yl)methyl)phenyl)carbamate] | 0.59 µM | 21.3 µM
7 | C[C@H](NC(=O)[C@@H]1C[C@@H]2[C@H](C1)C2(F)F)c1ccc(NC(=O)OCc2cnco2)cc1 [Compound 68, 1,3-oxazol-5-ylmethyl N-{4-[(1S)-1-{[(1R,3s,5S)-6,6-difluorobicyclo[3.1.0]hexan-3-yl]formamido}ethyl]phenyl}carbamate] | 0.59 µM | 11.1 µM
8 | CN(Cc1ccc(NC(=O)OCc2ccc(Cl)cc2)cc1)C(=O)c1cn[nH]c1F [Compound 69, (4-chlorophenyl)methyl N-(4-{[1-(3-fluoro-2H-pyrazol-4-yl)-N-methylformamido]methyl}phenyl)carbamate] | 0.59 µM | 3.07 µM
9 | CN(Cc1ccc(NC(=O)OCc2ccc(Cl)cc2)cc1)C(=O)c1n[nH]cc1F [Compound 71, (4-chlorophenyl)methyl N-(4-{[1-(4-fluoro-1H-pyrazol-3-yl)-N-methylformamido]methyl}phenyl)carbamate] | 0.61 µM | 2.51 µM
10 | COC1CCN(C(=O)N[C@@H](C)c2ccc(NC(=O)OCc3ccc(Cl)cc3)cc2)CC1 [Compound 72, 4-chlorobenzyl (S)-(4-(1-(4-methoxypiperidine-1-carboxamido)ethyl)phenyl)carbamate] | 0.62 µM | 5.27 µM
11 | O=C(Nc1ccc(CN2CCN(c3ncccn3)CC2)cc1)OCc1ccc(Cl)cc1 [Compound 73, 4-chlorobenzyl (4-((4-(pyrimidin-2-yl)piperazin-1-yl)methyl)phenyl)carbamate] | 0.62 µM | 1.76 µM
12 | CN(Cc1ccc(NC(=O)OCc2ccc(Cl)cc2)cc1)C(=O)c1ccnn1C1CCC1 [Compound 74, (4-chlorophenyl)methyl N-(4-{[1-(2-cyclobutylpyrazol-3-yl)-N-methylformamido]methyl}phenyl)carbamate] | 0.64 µM | 1.42 µM
13 | C[C@H](NC(=O)C1CC(F)(F)C1)c1ccc(NC(=O)OCc2cnco2)cc1 [Compound 75, 1,3-oxazol-5-ylmethyl N-{4-[(1S)-1-[(3,3-difluorocyclobutyl)formamido]ethyl]phenyl}carbamate] | 0.64 µM | 26.3 µM
14 | O=C(Nc1ccc(CNC(=O)c2ccncc2F)cc1)OCc1ccc(Cl)cc1 [Compound 78, (4-chlorophenyl)methyl N-(4-{[(3-fluoropyridin-4-yl)formamido]methyl}phenyl)carbamate] | 0.65 µM | 7.44 µM
15 | CC(C)(C)OC(=O)N1CCC(Cc2ccc(NC(=O)OCc3cnco3)cc2)CC1 [Compound 79, tert-butyl 4-(4-(((oxazol-5-ylmethoxy)carbonyl)ami-no)benzyl)piperidine-1-carboxylate] | 0.66 µM | 23.6 µM
16 | O=C(Nc1ccc(CC2CCN(C3COC3)CC2)cc1)OCc1cnco1 [Compound 80, oxazol-5-ylmethyl (4-((1-(oxetan-3-yl)piperidin-4-yl)methyl)phenyl)carbamate] | 0.66 µM | 29 µM
17 | COc1ccc(COC(=O)Nc2ccc(CN3CCN(c4ccccn4)CC3)cc2)cc1 [Compound 83, (4-methoxyphenyl)methyl N-(4-{[4-(pyridin-2-yl)piperazin-1-yl]methyl}phenyl)carbamate] | 0.66 µM | 8.11 µM
18 | O=C(Nc1ccc(CN2CCC3(CC3)C2=O)cc1)OCc1ccc(Cl)cc1 [Compound 84, (4-chlorophenyl)methyl N-[4-({4-oxo-5-azaspiro[2.4]heptan-5-yl}methyl)phenyl]carbamate] | 0.66 µM | 3.12 µM
19 | Cc1ncc(C(=O)N(C)Cc2ccc(NC(=O)OCc3ccc(Cl)cc3)cc2)o1 [Compound 85, (4-chlorophenyl)methyl N-(4-{[N-methyl-1-(2-methyl-1,3-oxazol-5-yl)formamido]methyl}phenyl)carbamate] | 0.67 µM | 6.38 µM
20 | CC(C)C(=O)N1CCC(Cc2ccc(NC(=O)OCc3ccc(Cl)cc3)cc2)CC1 [Compound 87, 4-chlorobenzyl (4-((1-isobutyrylpiperidin-4-yl)methyl)phenyl)carbamate] | 0.68 µM | 1.75 µM

More lines, now with the values ahead:

Row | AC1.4 Human | EC50 | Compound
21 | 0.51 µM | 1.82 µM | CN(Cc1ccc(NC(=O)OCc2ccc(Cl)cc2)cc1)C(=O)c1c(F)cncc1F [Compound 55, (4-chlorophenyl)methyl N-(4-{[1-(3,5-difluoropyridin-4-yl)-N-methylformamido]methyl}phenyl)carbamate]
22 | 0.53 µM | 2.8 µM | COCCn1nccc1C(=O)N[C@@H](C)c1ccc(NC(=O)OCc2ccc(Cl)cc2)cc1 [Compound 56, (4-chlorophenyl)methyl N-{4-[(1S)-1-{[2-(2-methoxyethyl)pyrazol-3-yl]formamido}ethyl]phenyl}carbamate]
23 | 0.54 µM | 1.29 µM | C[C@H](NC(=O)c1c(F)cncc1F)c1ccc(NC(=O)OCc2ccc(Cl)cc2)cc1 [Compound 57, (4-chlorophenyl)methyl N-{4-[(1S)-1-[(3,5-difluoropyridin-4-yl)formamido]ethyl]phenyl}carbamate]
24 | 0.57 µM | 1.91 µM | Cc1ccc(C(=O)N[C@@H](C)c2ccc(NC(=O)OCc3ccc(Cl)cc3)cc2)cn1 [Compound 60, 4-chlorobenzyl (S)-(4-(1-(6-methylnicotinamido)ethyl)phenyl)carbamate]
25 | 0.57 µM | 2.64 µM | NC(=O)N1CCC(Cc2ccc(NC(=O)OCc3ccc(Cl)cc3)cc2)CC1 [Compound 62, 4-chlorobenzyl (4-((1-carbamoylpiperidin-4-yl)methyl)phenyl)carbamate]
26 | 0.57 µM | 4.93 µM | O=C(Nc1ccc(CN2C(=O)CC3CC32)cc1)OCc1ccc(Cl)cc1 (stereo not drawn) [Compound 63, (4-chlorophenyl)methyl N-[4-({3-oxo-2-azabicyclo[3.1.0]hexan-2-yl}methyl)phenyl]carbamate]
27 | 0.58 µM | 4.22 µM | CO[C@H]1CC[C@H](NC(=O)Cc2ccc(NC(=O)OCc3ccc(Cl)cc3)cc2)CC1 [Compound 64, (4-chlorophenyl)methyl N-[4-({[(1R,4R)-4-methoxycyclohexyl]carbamoyl}methyl)phenyl]carbamate]
28 | 0.59 µM | 5.12 µM | Cc1ccc(C(=O)NCc2ccc(NC(=O)OCc3cncs3)cc2)cn1 [Compound 66, thiazol-5-ylmethyl (4-((6-methylnicotinamido)methyl)phenyl)carbamate]
29 | 0.64 µM | 0.89 µM | CCc1ccc(C(=O)N[C@@H](C)c2ccc(NC(=O)OCc3ccc(Cl)cc3)cc2)cn1 [Compound 76, (4-chlorophenyl)methyl N-{4-[(1S)-1-[(6-ethylpyridin-3-yl)formamido]ethyl]phenyl}carbamate]
30 | 0.65 µM | 1.67 µM | COCCn1nccc1C(=O)N(C)Cc1ccc(NC(=O)OCc2ccc(Cl)cc2)cc1 [Compound 77, (4-chlorophenyl)methyl N-[4-({1-[2-(2-methoxyethyl)pyrazol-3-yl]-N-methylformamido}methyl)phenyl]carbamate]
31 | 0.66 µM | 3.41 µM | CN1CC(=O)NC[C@@H]1c1ccc(NC(=O)OCc2ccc(Cl)cc2F)cc1 [Compound 81, 4-chloro-2-fluorobenzyl (S)-(4-(1-methyl-5-oxopiperazin-2-yl)phenyl)carbamate]
32 | 0.66 µM | 3.9 µM | CCc1ccc(C(=O)NCc2ccc(NC(=O)OCc3ccc(Cl)cc3)cc2)cn1 [Compound 82, (4-chlorophenyl)methyl N-(4-{[(6-ethylpyridin-3-yl)formamido]methyl}phenyl)carbamate]
33 | 0.68 µM | 6.21 µM | O=C(Nc1ccc(CN2CCOCC2=O)cc1)OCc1ccc(Cl)cc1 [Compound 86, (4-chlorophenyl)methyl N-{4-[(3-oxomorpholin-4-yl)methyl]phenyl}carbamate]
